Reference: patent publication US20050169912A1, “Immunogenic peptides and uses thereof” (priority 2001, published 2005)

Test system: antibody in sera from Helicobacter pylori infected patients and healthy control subjects
Assay: Immunoassay detecting serum antibodies specific for individual peptide antigens
Assay type: binding, human
Conditions: for functional specificity for the H. pylori protein: candidate sequences tested, FIGS. 4 and 5; for ability of peptide to identify Helicobacter pylori infected individuals: 30 infected patients vs 30 healthy controls, threshold control mean plus 2.5 standard deviations
Excerpt: 1. Possible Outcomes for Peptides Screened as Antigens in Serum Antibody Assays:
1. A positive result indicating the presence of a peptide-specific antibody in patient biological fluid samples, absent evidence of antibody in samples from subjects without the microorganism or autoimmune disease (FIG. 3) indicates the tested peptide is a specific peptide (immunogen) for a targeted protein.
3. No difference in positive antibody levels between patients and subjects without disease.
2. Immunoassay Method 1: Used to Detect Serum IgA, IgD, IgE, IgG, and IgM Antibodies Specific for Individual Peptide Antigens
(§1) Peptide solution: 0.06 μg/mL peptide dissolved in 20 mM Tris chloride, pH 7.4, containing 600 mM sodium chloride, 30 mg/mL polyethylene glycol 4000, 1 mm ethylenediaminetetraacetic acid, 1 mM ethylene glycol-bis(§-aminoethyl ether)N,N,N′,N′-tetraacetic acid, 0.5 mg/mL triton x-405 and 0.2 mg/mL thimerosal.
as §1, with “Control peptide” for “Peptide”, “0.013” for “0.06”, “μg/mL control” for “μg/mL”
Conjugate solution: 0.100 μg/mL alkaline phosphatase conjugated polyclonal goat anti human IgG dissolved in 20 mM Tris-HCL, pH 7.40, with 600 mM sodium chloride, 30.0 mg/mL peg-4000, 3.0 mg/mL BSA, 0.5 mg/mL triton x-405 and 0.20 mg/mL thimerosal.
Substrate solution: 25.2 μg/mL 4-methylumbelliferyl phosphate dissolved in 180 mM 2-amino-2-methyl-1-propanol, pH 9.50, containing 123 μM magnesium chloride.
Serum preparation: • 1. Add 100 μl serum to 15 neutravidin^a coated paper discs in a suitably sized test tube. • 2. Incubate with gentle mixing at ambient temperature for 16-20 hours. • 3. Add 7.9 mL of serum diluent and mix gently for 30 minutes. • 4. Vortex the tube gently to completely release the serum from the discs. • 5. Remove the treated serum from the discs and transfer it to a suitable storage tube. • 6. Store the treated serum at 4 EC.
Assay procedure: • 1. Two days before assay, aspirate the storage solution from the NeutrAvidin^a coated white microtiter plate and add 200 μl plate blocking solution to each well. • 2. Cover the plate and incubate at ambient temperature for 16-20 hours. • 3. One day before assay. Wash the blocked plate three times with plate wash buffer, approximately 275 μl per well per wash. Aspirate the final wash and add 100 μl peptide solution or 100 μl control peptide solution to the appropriate wells of the plate. • 4. Cover the plate and incubate with gentle mixing at ambient temperature for 16-20 hours. • 5. Day of assay, wash the blocked plate three times with plate wash buffer, approximately 275 μl per well per wash. Aspirate the final wash and add 100 μl treated serum to the appropriate wells of the plate. • 6. Cover the plate and incubate at 25 EC for 2 hours. • 7. Wash the blocked plate six times with plate wash buffer, approximately 275 μl per well per wash. Aspirate the final wash and add 100 μl conjugate solution to each assay well. • 8. Cover the plate and incubate at 25 EC for 1.5 hours. • 9. Wash the blocked plate six times with plate wash buffer, approximately 275 μl per well per wash. Aspirate the final wash and add 100 μl substrate solution to each assay well. • 10. Read the plate at 30 and 60 minutes in a fluorescence microtiter plate reader set at 365 nm excitation and 450 nm emission. 3. Biotinylation of Human Serum Albumin

Sequence	functional specificity for the H. pylori protein	detection of fluids from infected persons (Example 1, FIGS. 3-5)	Helicobacter pylori infected individuals identified by the peptide (sera from 30 H. pylori infected patients, positive/negative threshold control mean)	control sera identified as positive for the peptide (sera from 30 healthy control subjects, antibodies to the peptide)	ability of peptide to identify Helicobacter pylori infected individuals
KNLESYQKDA	not functionally specific	–	–	–	–
MQEIDKKLTQKN	–	detected fluids from infected persons	three	no control sera were incorrectly identified as positive	–
QKDAKECKGKRN	–	–	–	–	does not serve to identify Helicobacter pylori infected individuals
QKDAKELKGKRN	not functionally specific	–	–	–	does not serve to identify Helicobacter pylori infected individuals
